In patent publication US5869515A, “1,3-dihydro-2H-imidazol-2-one compounds” (Janssen Pharmaceutica N.V., priority 1995, dated 1999):

Each molecule was assayed against T1, recombinant human MNL phosphodiesterase type IV B (Homo sapiens, UniProt Q07343) (assay: Inhibition of Recombinant Human Mononuclear Lymphocyte (MNL) Phosphodiesterase Type IV B Produced in Insect Cells with a Baculovirus Vector). Conditions: 0.8 μM 3H-cAMP, pH 8, 10 min, 37° C., 1% DMSO; read-out: IC50 value, recombinant human MNL phosphodiesterase PDE IV B.
T1 construct: made in house
T1 sequence (Q07343 1-564 isoform Q07343-2): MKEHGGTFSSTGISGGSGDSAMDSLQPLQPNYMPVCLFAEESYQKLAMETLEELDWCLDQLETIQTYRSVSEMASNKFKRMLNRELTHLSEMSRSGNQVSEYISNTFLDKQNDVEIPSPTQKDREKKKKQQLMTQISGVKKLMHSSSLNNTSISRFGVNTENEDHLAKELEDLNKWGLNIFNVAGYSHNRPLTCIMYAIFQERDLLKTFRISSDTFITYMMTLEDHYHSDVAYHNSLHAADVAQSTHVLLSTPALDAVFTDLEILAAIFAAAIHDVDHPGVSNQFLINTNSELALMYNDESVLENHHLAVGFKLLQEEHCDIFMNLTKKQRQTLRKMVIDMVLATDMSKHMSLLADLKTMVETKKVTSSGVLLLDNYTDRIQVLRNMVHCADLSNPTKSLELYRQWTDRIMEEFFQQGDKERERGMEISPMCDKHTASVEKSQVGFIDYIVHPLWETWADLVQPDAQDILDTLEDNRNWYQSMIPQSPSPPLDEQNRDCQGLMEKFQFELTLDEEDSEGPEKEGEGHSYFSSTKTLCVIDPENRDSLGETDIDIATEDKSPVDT
Type: biochemical
Experimental: Inhibition of Recombinant Human Mononuclear Lymphocyte (MNL) Phosphodiesterase Type IV B Produced in Insect Cells with a Baculovirus Vector The alleviating and/or curing effect of the instant compounds on allergic and atopic diseases was assessed by an in vitro assay system to detect an inhibiting effect on the recombinant human MNL phosphodiesterase type IV B. Seventy-two hours after infection with recombinant baculovirus, the insect cells were harvested and pelleted at 500 g for 5 minutes. The cells were lysed in 10 ml lysis-buffer consisting of 20 mM Tris, 10 mM EGTA, 2 mM Na2 EDTA, 1% Triton-X-100, 1 mM Na3 VO4, 10 mM NaF, 2 μg/ml of leupeptine, pepstatine and aprotinine, 0.3 μg/ml benzamidine and 100 μg/ml TPCK pH 7.5. After 5 minutes on ice, solubilized cells were centrifuged at 4000 rpm for 15 minutes at 4° C. The resulting supernatant was filtered through a 0.45 μm filter (Millipore) and brought to TBS buffer (50 mM Tris, 150 mM NaCl pH 7.4). […] The inhibiting effect of the present compounds on recombinant human MNL phosphodiesterase PDE IV B was measured at different concentrations of the instant compounds. The IC50 values (expressed in M) were calculated graphically from the thus obtained inhibition values.
`COc1ccc(C(=O)Cn2ccnc2O)cc1OC1CCCC1` [Compound 1, 1-[2-[3-(cyclopentyloxy)-4-methoxyphenyl]-2-oxoethyl]-1,3-dihydro-2H-imidazol-2-one] was tested, and the IC50 was < 1000 nM. In the case of `C=C(Cn1cc[nH]c1=O)c1ccc(OC)c(OC2CCCC2)c1` [Compound 4, 1-[2-[3-(cyclopentyloxy)-4-methoxy-phenyl]-2-propenyl]-1,3-dihydro-2H-imidazol-2-one], the IC50 is reported as < 1000 nM.

What follows are molecules tested on dextran-induced oedema formation in mouse ear (assay: Dextran-Induced Oedema Formation in Mouse Ear). Conditions: oral, mice, 1 h before i.v. dextran T500 and pontamine sky-blue, compared with background extravasation, read-out: % inhibition of the extravasation of the dye.
Type: in vivo, male Swiss mice
Experimental: Dextran-Induced Oedema Formation in Mouse Ear
Systemic injection of dextran T500 in normal, non-sensitized mice elicits increased vascular permeability, leading to extravasation and oedema of the extremities. When dextran is injected together with a blue dye, blueing of the ears is the most prominent feature of oedematous response.
Male Swiss mice weighing 24-26 g were orally pretreated with the test compound dissolved in PEG-200 at different concentrations or solvent. One hour later, the mice were given an intravenous injection with an isotonic saline solution containing 12 mg/ml dextran T500 and 2.6 mg/ml pontamine sky-blue dye, in a volume of 0.1 ml per 10 g body weight. One hour and forty-five minutes later, the animals are sacrificed by ether and their ears removed. Extraction and quantification of the extravasated dye is done as described by Van Wauwe and Goossens (Drug Dev. Res. 1986, 8, 213-218).
The extravasation of the dye is characterized by the blueing value which is defined as the concentration of the extracted dye in both ears. The background blueing value was determined once as the mean blueing value obtained by injecting a group of mice with a saline solution containing only dextran T500 and the blue dye. Table 2 lists the percentage inhibition of the extravasation of the dye when compared with the background extravasation of the dye when the test compound was administered at a dose of 5 mg/kg.
`COc1ccc(C(=O)CN2CCN(C3CCCCO3)C2=O)cc1OC` (racemic) [Compound 8, (±)-1-[2-(3,4-dimethoxyphenyl)-2-oxoethyl]-3-(tetrahydro-2H-pyran-2-yl)-2-imidazolidinone] was tested, and the inhibition in vivo at 5 mg/kg was 5.2%. Molecule `COc1ccc(C(=O)Cn2ccnc2O)cc1OC1CCCC1` [Compound 1, 1-[2-[3-(cyclopentyloxy)-4-methoxyphenyl]-2-oxoethyl]-1,3-dihydro-2H-imidazol-2-one] has an inhibition in vivo at 5 mg/kg of 48.3%. For `CCOC(=O)n1ccn(CC(=O)c2ccc(OC)c(OC3CCCC3)c2)c1=O` [Compound 2, ethyl 3-[2-[3-(cyclopentyloxy)-4-methoxphenyl]-2-oxoethyl]-2,3-dihydro-2-oxo-1H-imidazole-1-carboxylate], the inhibition in vivo at 5 mg/kg was 55.6%. Work on `COc1ccc(C(=O)Cn2ccn(Cc3ccccc3)c2=O)cc1OC` [Compound 5, 1-[2-(3,4-dimethoxyphenyl)-2-oxoethyl]-1,3-dihydro-3-(phenylmethyl)-2H-imidazol-2-one] yielded an inhibition in vivo at 5 mg/kg of 28.7%. Work on `COc1ccc(C(=O)CN2CCNC2=O)cc1OC` [Compound 7, 1-[2-(3,4-dimethoxyphenyl)-2-oxoethyl]-2-imidazolidinone] yielded an inhibition in vivo at 5 mg/kg of 22.6%. `COc1ccc(/C(=C\C#N)CN2CCNC2=O)cc1OC` [Compound 9, (E)-3-(3,4-dimethoxyphenyl)-4-(2-oxo-1-imidazolidinyl)-2-butenenitrile] gave an inhibition in vivo at 5 mg/kg of 53.8%. `COc1ccc(Cn2ccn(CC(=O)c3ccc(OC)c(OC4CCCC4)c3)c2=O)cc1` [Compound 10, 1-[2-[3-(cyclopentyloxy)-4-methoxyphenyl]-2-oxoethyl]-1,3-dihydro-3-[(4-methoxyphenyl)methyl]-2H-imidazol-2-one] was tested, and the inhibition in vivo at 5 mg/kg was 56%. Molecule `COc1ccc(C(=O)Cn2ccn(C(c3ccccc3)c3ccccc3)c2=O)cc1OC` [Compound 11] has an inhibition in vivo at 5 mg/kg of 34.6%. `COc1ccc(Cn2ccn(CC(=O)c3ccc(OC)c(OC)c3)c2=O)c(OC)c1` [Compound 12] showed an inhibition in vivo at 5 mg/kg of 26.4%. Work on `COc1ccc(C(=O)CN2CCNC2=O)cc1OC1CCCC1` [Compound 13] yielded an inhibition in vivo at 5 mg/kg of 27.9%. With `CCOC(=O)N1CCN(CC(=O)c2ccc(OC)c(OC)c2)C1=O` [Compound 15] the inhibition in vivo at 5 mg/kg was 19.2%.
